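Briefly, cells in 96-well plates were exposed to five compound concentrations for 48 h, and endpoints were estimated by linear interpolation. Here, GI50 denotes the concentration required for 50% inhibition of growth. TGI: total growth inhibition.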
Experiments:
Test in all cases: DTP human tumour cell line panel, 48 h
786-0 renal = test system: 786-0 renal
A498 renal = test system: A498 renal
HCT-116 colon = test system: HCT-116 colon
HCT-15 colon = test system: HCT-15 colon
HOP-92 NSCLC = test system: HOP-92 NSCLC
HT29 colon = test system: HT29 colon
IGROV1 ovarian = test system: IGROV1 ovarian
LOX IMVI melanoma = test system: LOX IMVI melanoma
NCI-H226 lung = test system: NCI-H226 lung
NCI-H23 lung = test system: NCI-H23 lung
NCI-H522 lung = test system: NCI-H522 lung
OVCAR-3 ovarian = test system: OVCAR-3 ovarian
OVCAR-8 ovarian = test system: OVCAR-8 ovarian
RPMI-8226 leukemia = test system: RPMI-8226 leukemia
RXF 393 renal = test system: RXF 393 renal
SR leukemia = test system: SR leukemia
TK-10 renal = test system: TK-10 renal
U251 CNS = test system: U251 CNS

SMILES	TGI (786-0 renal) [µM]	TGI (A498 renal) [µM]	TGI (HCT-116 colon) [µM]	TGI (HCT-15 colon) [µM]	TGI (HOP-92 NSCLC) [µM]	TGI (HT29 colon) [µM]	TGI (IGROV1 ovarian) [µM]	TGI (LOX IMVI melanoma) [µM]	TGI (NCI-H226 lung) [µM]	TGI (NCI-H23 lung) [µM]	TGI (NCI-H522 lung) [µM]	TGI (OVCAR-3 ovarian) [µM]	TGI (OVCAR-8 ovarian) [µM]	TGI (RPMI-8226 leukemia) [µM]	TGI (RXF 393 renal) [µM]	TGI (SR leukemia) [µM]	TGI (TK-10 renal) [µM]	TGI (U251 CNS) [µM]	GI50 (HCT-116 colon) [µM]	GI50 (OVCAR-3 ovarian) [µM]
CCCc1c(C(=O)OCC)[nH]c(-c2ccc(-c3[nH]c(C(=O)OCC)c(CCC)c3C(=O)OCC)o2)c1C(=O)OCC	> 100	> 100	> 100	> 100	> 100	> 100	> 100	> 100	> 100	> 100	> 100	> 100	> 100	> 100	> 100	> 100	> 100	> 100	–	–
CC(C)c1c(O[Si](C(C)C)(C(C)C)C(C)C)c2c3c(ccc4c3c1OC4(C)C)C(C)CC2 (centres undefined)	> 100	> 100	> 100	> 100	> 100	> 100	> 100	> 100	> 100	> 100	> 100	> 100	> 100	> 100	> 100	> 100	> 100	> 100	–	–
COc1ccc([C@H]2C=C(c3cc(F)c(Cl)cc3Cl)NC(=S)N2)cc1	> 100	79.2	84.9	> 100	> 100	80.5	> 100	> 100	> 100	> 100	> 100	> 100	> 100	76	79.9	> 100	> 100	95.8	–	–
Cc1ccc2c(c1)SC(c1cc3c(cc1Br)OCO3)S2 (centres undefined)	> 31.6	> 31.6	> 31.6	> 31.6	> 31.6	> 31.6	> 31.6	> 31.6	> 31.6	> 31.6	> 31.6	> 31.6	> 31.6	> 31.6	> 31.6	> 31.6	> 31.6	> 31.6	–	–
CC[N+]1(C)CCC(O)(c2ccccc2)C(C(=O)c2ccccc2)C1 (centres undefined)	18.8	30.7	34.7	21.8	25.4	31.8	38.6	36.8	38.8	40.8	3.29	45.7	59.1	6.37	26.6	15.6	31.4	43.2	–	–
Cc1cc(S(=O)(=O)NC2=NC(c3ccccc3)c3ccccc3N2)c(S)cc1Cl (centres undefined)	> 100	> 100	> 100	> 100	> 100	> 100	> 100	> 100	> 100	> 100	> 100	> 100	> 100	> 100	> 100	58.3	> 100	> 100	–	–
O=C(O)c1nc2ccccc2nc1Nc1ccc(F)cc1	> 100	> 100	> 100	89.8	85.9	> 100	> 100	> 100	> 100	> 100	82.4	77.5	> 100	> 100	51.8	91.1	> 100	> 100	–	–
CC#Cc1cc2c(cc1O)CC[C@@H]1[C@@H]2CC[C@]2(C)[C@@H](O)CC[C@@H]12	35.1	27.9	17.3	14.2	26.9	30.5	38.1	19.5	17.8	10.6	2.71	3.26	19.9	> 66.1	13.8	25.7	> 91.3	7.81	0.48	0.337
CC(C)(C)CC(C)(C)N=C(N)NO	> 100	97.6	> 100	> 100	> 100	> 100	> 100	> 100	> 100	> 100	> 100	> 100	> 100	> 100	> 100	> 100	> 100	> 100	–	–
O=C1/C(=C/c2ccccc2)N=C(c2ccccc2)N1C1Nc2cc3c(cc2S1)NC(N1C(=O)/C(=C/c2ccccc2)N=C1c1ccccc1)S3 (centres undefined)	> 100	68	> 100	82.9	8.27	> 100	> 100	> 100	> 100	39.3	0.0623	> 100	> 100	68.4	54.3	> 100	> 100	> 100	–	–
COC(=O)n1c(=O)n(-c2ccccc2)c(=O)n1C(=O)Nc1ccccc1	> 100	> 100	> 100	> 100	> 100	> 100	> 100	> 100	> 100	> 100	> 100	> 100	> 100	> 100	> 100	> 100	> 100	> 100	–	–
CC(=O)c1nc2ccccc2n1CC(=O)c1ccc(Cl)cc1	14.1	> 100	> 100	> 100	22.5	35.4	26.1	12.6	> 100	> 100	23	23.2	85.8	> 100	98.5	> 100	> 100	> 100	–	–
CN(C)c1nc(=NCc2cccs2)ss1	> 10	> 10	> 10	> 10	> 10	> 10	> 10	> 10	> 10	> 10	9.57	> 10	> 10	> 10	> 10	> 4.9	> 10	> 10	–	–
CN(C)/C=C(\C(=O)c1ccccc1)n1nc(-c2ccccc2)cc1-c1ccccc1	> 10	> 10	> 10	> 10	> 10	> 10	> 10	> 10	> 10	> 10	> 10	> 10	> 10	> 10	> 10	> 10	> 10	> 10	–	–
OCc1ccc2c(c1)CC1(C2)Cc2cc3c(cc2C1)CCC3	> 100	35.4	> 100	> 100	> 74	> 100	> 100	> 100	> 100	> 100	> 27.6	> 100	> 100	> 100	28.5	> 100	> 79.6	> 100	–	–
S=C(N/N=C(/c1ccccc1)c1ccccn1)Nc1ccc(Cl)cc1	12.3	9.4	4.47	11.2	11.9	> 44.3	12.9	7.49	7.54	22.6	11.5	11.6	3.19	> 25.9	7.87	6.75	8.3	12.4	–	–
Cn1c(=O)c2c(nc(N)n2C2OC(CO)C(O)C2O)n(C)c1=O (centres undefined)	> 100	> 100	> 100	> 100	> 100	> 100	> 100	> 100	> 100	> 100	> 100	> 100	> 100	> 100	> 100	> 100	> 100	> 100	–	–
COC(=O)[C@@H]1C2OC(C)(C)OC2CN1C(=O)OCc1ccccc1 (some centres undefined)	> 100	> 100	> 100	> 100	> 100	> 100	> 100	> 100	> 100	> 100	> 100	> 100	> 100	> 100	> 100	> 100	> 100	> 100	–	–
CN(C)CCCNc1ccnc2cc([N+](=O)[O-])ccc12	28.8	31.7	23.7	26.7	8.13	6.99	12.8	24.6	35	25.4	16.3	29.9	46.1	> 100	26.3	> 100	65.4	57.7	–	–
O=C1Nc2cc([N+](=O)[O-])ccc2C(=O)N2CCC[C@@H]12	> 100	> 100	> 100	> 100	> 100	> 100	> 100	> 100	> 100	> 100	> 100	> 100	> 100	> 100	> 100	> 100	> 100	> 100	–	–
COC(=O)c1c2c(c(-c3ccccc3)c3c1-c1nc(Cl)ccc1CC3)CCc1ccc(Cl)nc1-2	> 100	> 100	> 100	> 100	> 100	> 100	> 100	> 100	> 100	> 100	> 100	> 100	> 100	> 100	> 100	> 100	> 100	> 100	–	–
Nc1nc(Cl)cc(NCC2(CO)CCC(O)C2)n1 (centres undefined)	> 100	> 100	> 100	> 100	> 100	> 100	> 100	> 100	> 100	> 100	> 100	> 100	> 100	> 100	> 100	> 100	> 100	> 100	–	–
CCCN(CCC)c1cc2c(cc1F)c(=O)c(C(=O)O)cn2-c1ccc(N2CCN(C)CC2)cn1	36.8	49.2	28.9	> 100	28.7	30.5	27.6	9.65	31.1	35	24.9	29.7	27.3	40.4	33.1	35.9	23.1	> 100	–	–
COc1ccc2c(c1)CC[C@@H]1[C@@H]2CC[C@]2(C)C(=O)/C(=C/c3ccncc3)C[C@@H]12	> 100	87.6	> 100	> 100	77.9	> 100	> 100	> 100	> 100	> 100	92.1	44.2	> 100	> 100	46.7	> 100	> 100	> 100	–	–

Reference: PubChem BioAssay (NCI)
